Measurements: patent publication US4412994A, “Mannich-base hydroxamic acid prodrugs, compositions and use” (INTERx Research Corporation, priority 1982, dated 1983)

Tested on: mouse ear
Experiment: mouse ear assay (croton oil-induced ear inflammation, anti-inflammatory activity)
Assay type: in vivo, male ddY strain mouse
Details: topical, 0.05 ml in acetone containing 2% croton oil on right ear; 3 hours; linear regression of data at 2×10^-2, 4×10^-2 and 8×10^-2 M; groups of 15 mice
Method: G. Van Arman, Clin. Pharm. […] Details of the mouse ear assay are as follows:
The test animal was the male ddY strain mouse (20-25 grams each). Solutions of the test compound in acetone containing 2% croton oil (i.e. a solution containing 98 parts of acetone to 2 parts of croton oil) were prepared for varying concentrations of the test compound. Then, the test animals were anesthetized and 0.05 ml of the selected test solution was applied in 0.025 ml aliquots, one each to the anterior and posterior surface of the right ear of each mouse. Three hours after application, the mice were sacrificed via ether inhalation and both ears were removed from each mouse. Then, one circular section, 8 mm in diameter, was taken from each ear using a leather punch. The increase in weight caused by the irritant was determined by subtracting the weight of the untreated left ear section from that of the right ear section. Drug effects expressed as percent inhibition were determined at each selected concentration (molarity) of each test compound according to the following equation: [formula]
Groups of 15 mice were treated at each dosage level of each test compound. The control group consisted of 30 mice. In the control group, the right ear of each mouse was treated with the croton oil/acetone solution described above but not containing test compound, while the left ear of each control mouse was untreated.
Indomethacin, indomethacin hydroxamic acid and the compounds of Examples 3, 4 and 5 were tested according to the mouse ear assay described above.

| SMILES | ED50 |
| --- | --- |
| CCN(CC)CN(O)C(=O)Cc1c(C)n(C(=O)c2ccc(Cl)cc2)c2ccc(OC)cc12 [α-[1-(4'-Chlorobenzoyl)-5-methoxy-2-methylindol-3-yl]-N-(N', N'-diethylaminomethyl)acetohydroxamic Acid] | 0.041 M |
| COc1ccc2c(c1)c(CC(=O)N(O)CN1CCOCC1)c(C)n2C(=O)c1ccc(Cl)cc1 [α-[1-(4'-Chlorobenzoyl)-5-methoxy-2-methylindol-3-yl]-N-(morpholinomethyl)acetohydroxamic Acid] | 0.054 M |
| COc1ccc2c(c1)c(CC(=O)NO)c(C)n2C(=O)c1ccc(Cl)cc1 [Indomethacin hydroxamic acid, α-[1-(4'-Chlorobenzoyl)-5-methoxy-2-methylindol-3-yl]acetohydroxamicAcid] | 0.096 M |
| COc1ccc2c(c1)c(CC(=O)N(O)CN1CCN(C)CC1)c(C)n2C(=O)c1ccc(Cl)cc1 [α-[1-(4'-Chlorobenzoyl)-5-methoxy-2-methylindol-3-yl]-N-[(4-methylpiperazin-1-yl)methyl]acetohydroxamic Acid] | 0.027 M |
| COc1ccc2c(c1)c(CC(=O)O)c(C)n2C(=O)c1ccc(Cl)cc1 [Indomethacin, 1-(4'-Chlorobenzoyl)-5-methoxy-2-methyl-3-indolylacetic Acid, reference compound] | 0.061 M |
